The results in this text go back to patent US8778939B2, “Compounds” (Glaxo Group Limited, priority 2009, dated 2014).

Type in all cases: biochemical
For experiment [1], the target named is T1, 6His-Tev-LRRK2 (1326-2527) (Homo sapiens, UniProt Q5S007).
T1 construct: A LRRK2 cDNA encoding residues 1326-2527 was received from Dundee University; made in house; host or cells: Spodoptera frugiperda (Sf9) insect cells, baculovirus
T1 sequence (Q5S007 1326-2527): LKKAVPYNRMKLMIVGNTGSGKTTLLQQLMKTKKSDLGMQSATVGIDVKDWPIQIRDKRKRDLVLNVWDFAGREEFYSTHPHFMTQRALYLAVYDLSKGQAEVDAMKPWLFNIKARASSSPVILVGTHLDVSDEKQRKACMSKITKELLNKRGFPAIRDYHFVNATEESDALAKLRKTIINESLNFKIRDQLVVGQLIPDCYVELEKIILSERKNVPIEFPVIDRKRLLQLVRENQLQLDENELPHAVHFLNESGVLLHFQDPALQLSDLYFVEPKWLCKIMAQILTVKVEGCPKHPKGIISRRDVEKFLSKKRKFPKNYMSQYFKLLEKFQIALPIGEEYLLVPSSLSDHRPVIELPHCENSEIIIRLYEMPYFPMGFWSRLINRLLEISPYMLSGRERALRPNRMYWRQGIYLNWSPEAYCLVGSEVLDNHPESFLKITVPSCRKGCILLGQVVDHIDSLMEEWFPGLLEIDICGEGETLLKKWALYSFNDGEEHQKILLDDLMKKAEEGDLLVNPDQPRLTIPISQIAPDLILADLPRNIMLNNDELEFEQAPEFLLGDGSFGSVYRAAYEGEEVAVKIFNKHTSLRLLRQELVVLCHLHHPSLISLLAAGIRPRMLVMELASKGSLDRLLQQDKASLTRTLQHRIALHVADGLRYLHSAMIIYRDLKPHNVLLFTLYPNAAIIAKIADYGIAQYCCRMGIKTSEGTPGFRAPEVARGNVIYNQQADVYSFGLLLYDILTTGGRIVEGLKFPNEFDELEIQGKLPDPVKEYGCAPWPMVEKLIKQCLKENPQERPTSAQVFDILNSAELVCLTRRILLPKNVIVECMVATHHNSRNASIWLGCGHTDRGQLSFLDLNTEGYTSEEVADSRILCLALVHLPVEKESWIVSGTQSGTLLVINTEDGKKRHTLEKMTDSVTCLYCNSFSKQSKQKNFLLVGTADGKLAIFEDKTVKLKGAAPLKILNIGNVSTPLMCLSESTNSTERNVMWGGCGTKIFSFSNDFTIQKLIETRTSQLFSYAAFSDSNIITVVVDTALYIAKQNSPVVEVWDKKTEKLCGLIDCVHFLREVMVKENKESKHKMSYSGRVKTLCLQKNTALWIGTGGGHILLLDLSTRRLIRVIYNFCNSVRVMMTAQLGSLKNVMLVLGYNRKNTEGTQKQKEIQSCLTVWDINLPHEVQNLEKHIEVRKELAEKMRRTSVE
The experiment is described as follows: LRRK2 AlphaScreen protein substrate assay. Conditions: GST-PS-Moesin (400-577) substrate, ATP at Km; read-out: pIC50 in the LRRK2 alphascreen protein substrate assay (converted). On the procedure:
a) 100 nl of a 1:4 serial dilution of test compound with a top final assay concentration of 30 μM is added to certain wells in a low volume 384 well black plate. 100 nl of DMSO is used in certain wells as controls.
b) 3 μl enzyme solution (80 nM purified recombinant 6His-Tev-LRRK2 (1326-2527) in assay buffer: 50 mM Hepes (pH 7.2), 10 mM MgCl2, 150 mM NaCl, 5% glycerol, 0.0025% triton X-100 and 1 mM DTT) is added to certain wells.
Plates are then incubated for a further 1-2 hours at room temperature (incubation time varies depending upon rate and linearity of reaction with differing enzyme batches).
d) 6 μl detection solution (1:250 dilution of AlphaLisa Protein A Acceptor beads (PerkinElmer), 1:64 dilution of AlphaLisa Gluthathione Donor beads (PerkinElmer) and 1:600 dilution (dilution determined on a batch to batch basis) of Phospho-Ezrin (Thr567)/Radixin (Thr564)/Moesin (Thr558) Polyclonal Antibody (New England Biolabs) in a buffer: 50 mM Hepes (pH 7.5), 250 mM NaCl, 60 mM EDTA, 1% PEG and 0.01% Brij 35) is added to each well. Plates are then incubated for a further 2 hours at room temperature in the dark before reading on an EnVision™ plate reader with AlphaScreen HTS turbo option module and AlphaScreen settings. Data is analysed using ActivityBase software (IDBS).
(In Alpha technology, singlet oxygen from a donor bead excites a nearby acceptor bead.)

The target of experiment [2] is T1, 6His-Tev-LRRK2 (1326-2527). Nature of the experiment: LRRK2 peptide substrate assay. Conditions: Biotin-LRRKtide peptide substrate, ATP at Km. In a few lines:
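Recombinant 6His-Tev-LRRK2 (1326-2527), 80 nM in enzyme solution, in pH 7.2 Hepes/MgCl2 buffer with DTT; compounds in 1:4 serial dilution from 30 μM top final. Reaction 1-2 h at room temperature, stopped with EDTA; phospho-moesin (Thr558) antibody with Eu/APC TR-FRET detection after 2 h (ex 330, em 620/665 nm).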

For experiment [3], the target named is T1, 6His-Tev-LRRK2 (1326-2527). The experiment is described as follows: LRRK2 AlphaScreen desensitised protein substrate assay. In a few lines:
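Purified 6His-Tev-LRRK2 (1326-2527), 80 nM in enzyme solution, in pH 7.2 Hepes buffer with MgCl2 and DTT; compound 1:4 dilutions, top final 30 μM. ATP 2 mM in substrate solution, 20 min at room temperature. Phospho-ERM (Thr567/564/558) detected by AlphaScreen.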

The mark [4] stands for this setting: read-out: pIC50 in the LRRK2 peptide substrate assay (converted).
[5] abbreviates: excess of ATP present (2 mM ATP), read-out: pIC50 in the LRRK2 alphascreen desensitised protein substrate assay (converted).
Setting [6] is: mean pIC50, read-out: LRRK2 peptide substrate assay (pIC50) (converted).
[7] abbreviates: mean pIC50, GST-PS-Moesin (400-577) substrate, 2 mM ATP (excess of ATP present), read-out: LRRK2 alphascreen desensitised protein substrate assay (pIC50) (converted).

Each structure is given as a SMILES string.

As to `O=C(O)Cc1cccc(NC(=O)c2cc(Cl)ccc2OCc2ccccc2)c1` [Example 25, {3-[({5-Chloro-2-[(phenylmethyl)oxy]phenyl}carbonyl)amino]phenyl}acetic acid], in experiment [1], the IC50 was ≤ 7.94 µM.

With `Cn1cc(-c2ccc(OCc3ccc(F)c(F)c3)c(C(=O)Nc3cccnc3)c2)cn1` [Example 110, 2-{[(3,4-Difluorophenyl)methyl]oxy)-5-(1-methyl-1H-pyrazol-4-yl)-N-3-pyridinylbenzamide], the results for the IC50 in experiment [2] (setting [4]) and in experiment [3] (setting [5]) were ≤ 100 nM and ≤ 20 µM, respectively.

With `O=C(Nc1cccnc1)c1cc(CN2CCOCC2)ccc1OCc1ccc(F)c(F)c1` [Example 112, 2-{[(3,4-Difluorophenyl)methyl]oxy}-5-(4-morpholinylmethyl)-N-3-pyridinylbenzamide], the IC50 was ≤ 100 nM in experiment [2] (setting [4]) and ≤ 20 µM in experiment [3] (setting [5]).

Take `Cn1cc(-c2ccc(OCc3ccccc3C#N)c(C(=O)Nc3cccnc3)c2)cn1` [Example 113, 2-{[(2-Cyanophenyl)methyl]oxy}-5-(1-methyl-1H-pyrazol-4-yl)-N-3-pyridinylbenzamide]: the values for the IC50 in experiment [2] (setting [4]) and in experiment [3] (setting [5]) were ≤ 100 nM and ≤ 20 µM, respectively.

With `COc1cccc(COc2ccc(-c3cnn(C)c3)cc2C(=O)Nc2cccnc2)c1` [Example 115, 2-({[3-(Methyloxy)phenyl]methyl}oxy)-5-(1-methyl-1H-pyrazol-4-yl)-N-3-pyridinylbenzamide], the IC50 in experiment [2] (setting [4]) is ≤ 100 nM; in experiment [3] (setting [5]), ≤ 20 µM.

As for `Cn1cc(-c2ccc(OCc3ccc(F)cc3F)c(C(=O)Nc3cccnc3)c2)cn1` [Example 116, 2-{[(2,4-Difluorophenyl)methyl]oxy}-5-(1-methyl-1H-pyrazol-4-yl)-N-3-pyridinylbenzamide], the IC50 was ≤ 10 nM in experiment [2] (setting [4]) and ≤ 20 µM in experiment [3] (setting [5]).

As for `O=C(Nc1cccnc1)c1cc(CN2CCOCC2)ccc1OCc1ccc(F)cc1` [Example 117, 2-{[(4-Fluorophenyl)methyl]oxy}-5-(4-morpholinylmethyl)-N-3-pyridinylbenzamide], the IC50 is ≤ 100 nM in experiment [2] (setting [4]), 20 nM in experiment [2] (setting [6]), ≤ 20 µM in experiment [3] (setting [5]) and 0.794 µM in experiment [3] (setting [7]).

`COC(=O)NCc1ccc(OCc2ccc(F)cc2)c(C(=O)Nc2cccnc2)c1` [Example 118, Methyl ({4-{[(4-fluorophenyl)methyl]oxy}-3-[(3-pyridinylamino)carbonyl]phenyl}methyl)carbamate]: the IC50 was ≤ 10 nM in experiment [2] (setting [4]) and ≤ 20 µM in experiment [3] (setting [5]).

For the compound `O=C(Nc1ccnnc1)c1cc(CN2CCOCC2)ccc1OCc1ccc(F)cc1` [Example 119, 2-{[(4-Fluorophenyl)methyl]oxy}-5-(4-morpholinylmethyl)-N-4-pyridazinyl benzamide], the IC50 in experiment [2] (setting [4]) was ≤ 100 nM; in experiment [3] (setting [5]), ≤ 20 µM.

Turning to `Nc1cc(-c2ccc(OCc3ccccc3)c(C(=O)Nc3cccnc3)c2)ccn1` [Example 122, 5-(2-Amino-4-pyridinyl)-2-[(phenylmethyl)oxy]-N-3-pyridinylbenzamide], the IC50 in experiment [2] (setting [4]) is ≤ 100 nM; in experiment [3] (setting [5]), ≤ 20 µM.

For `O=C(Nc1cccnc1F)c1cc(C(=O)N2CCOCC2)ccc1OCc1ccc(F)cc1` [Example 123, 2-{[(4-Fluorophenyl)methyl]oxy}-N-(2-fluoro-3-pyridinyl)-5-(4-morpholinylcarbonyl)benzamide], the IC50 in experiment [2] (setting [4]) was ≤ 100 nM; in experiment [2] (setting [6]) it was 39.8 nM; in experiment [3] (setting [5]), ≤ 20 µM; in experiment [3] (setting [7]), 2.51 µM.

With `O=C(Nc1cccnc1F)c1cc(C(=O)N2CCOCC2)ccc1OCc1ccc(F)cc1F` [Example 125, 2-{[(2,4-Difluorophenyl)methyl]oxy)-N-(2-fluoro-3-pyridinyl)-5-(4-morpholinylcarbonyl)benzamide], the IC50 in experiment [2] (setting [4]) was ≤ 100 nM; in experiment [3] (setting [5]), ≤ 20 µM.

For the compound `O=C(Nc1cccnc1)c1cc(C(=O)N2CCOCC2)ccc1OCc1ccc(F)cc1` [Example 127, 2-{[(4-Fluorophenyl)methyl]oxy}-5-(4-morpholinylcarbonyl)-N-3-pyridinylbenzamide], the IC50 is ≤ 100 nM in experiment [2] (setting [4]), 63.1 nM in experiment [2] (setting [6]), ≤ 20 µM in experiment [3] (setting [5]) and 10 µM in experiment [3] (setting [7]).

With `O=C(Nc1cccnc1)c1cc(-c2cnn(CCN3CCOCC3)c2)ccc1OCc1ccc(F)cc1` [Example 128, 2-{[(4-Fluorophenyl)methyl]oxy}-5-{1-[2-(4-morpholinyl)ethyl]-1H-pyrazol-4-yl}-N-3-pyridinylbenzamide], the IC50 was ≤ 10 nM in experiment [2] (setting [4]), 7.94 nM in experiment [2] (setting [6]), ≤ 20 µM in experiment [3] (setting [5]) and 0.126 µM in experiment [3] (setting [7]).

For `Cc1nocc1NC(=O)c1cc(-c2cnn(CCN3CCOCC3)c2)ccc1OCc1ccc(F)cc1` [Example 129, 2-([(4-Fluorophenyl)methyl]oxy)-N-(3-methyl-4-isoxazolyl)-5-{1-[2-(4-morpholinyl)ethyl]-1H-pyrazol-4-yl}benzamide], the IC50 is ≤ 100 nM in experiment [2] (setting [4]), 12.6 nM in experiment [2] (setting [6]), > 25.1 µM in experiment [3] (setting [5]) and > 25.1 µM in experiment [3] (setting [7]).

Consider `COCCn1cc(-c2ccc(OCc3ccc(F)cc3)c(C(=O)Nc3cccnc3)c2)cn1` [Example 130, 2-{[(4-Fluorophenyl)methyl]oxy}-5-{1-[2-(methyloxy)ethyl]-1H-pyrazol-4-yl}-N-3-pyridinylbenzamide], for which the IC50 is ≤ 10 nM in experiment [2] (setting [4]), 3.16 nM in experiment [2] (setting [6]), ≤ 20 µM in experiment [3] (setting [5]) and 0.0316 µM in experiment [3] (setting [7]).

For `Cn1cc(-c2ccc(OCc3ccc(F)cc3)c(C(=O)Nc3cnoc3)c2)cn1` [Example 134, 2-{[(4-Fluorophenyl)methyl]oxy}-N-4-isoxazolyl-5-(1-methyl-1H-pyrazol-4-yl)benzamide], the IC50 is ≤ 100 nM in experiment [2] (setting [4]) and ≤ 20 µM in experiment [3] (setting [5]).

`O=C(Nc1cccnc1)c1cc(CCCN2CCOCC2)ccc1OCc1ccc(F)cc1` [Example 136, 2-{[(4-Fluorophenyl)methyl]oxy}-5-[3-(4-morpholinyl)propyl]-N-3-pyridinylbenzamide]: the IC50 in experiment [2] (setting [4]) is ≤ 100 nM; in experiment [2] (setting [6]) it was 100 nM; in experiment [3] (setting [5]), ≤ 20 µM; in experiment [3] (setting [7]) it was 0.398 µM.
